From the NIST ThermoML archive (doi:10.1016/j.fluid.2010.07.011)
Numbers after ± are expanded uncertainties.

Test: xn = mol fraction of the nth substance listed
Settings: 101.33 kPa, Liquid, Vibrating tube method

CCCCCCN [1-hexanamine] + CCCCCCC
mass density [kg/m3]
Settings | 288.15 K | 293.15 K | 298.15 K | 303.15 K | 308.15 K | 313.15 K | 318.15 K | 323.15 K
x1 = 0.0497 | 691.084 ± 0.18 | 686.872 ± 0.18 | 682.638 ± 0.19 | 678.375 ± 0.19 | 674.087 ± 0.19 | 669.766 ± 0.19 | 665.416 ± 0.19 | 661.034 ± 0.19
x1 = 0.0712 | 692.472 ± 0.19 | 688.259 ± 0.19 | 684.023 ± 0.19 | 679.762 ± 0.19 | 675.473 ± 0.19 | 671.155 ± 0.19 | 666.804 ± 0.2 | 662.428 ± 0.2
x1 = 0.1 | 694.376 ± 0.19 | 690.164 ± 0.19 | 685.929 ± 0.19 | 681.666 ± 0.2 | 677.379 ± 0.2 | 673.063 ± 0.2 | 668.716 ± 0.2 | 664.339 ± 0.2
x1 = 0.1394 | 697.059 ± 0.2 | 692.841 ± 0.2 | 688.603 ± 0.2 | 684.341 ± 0.2 | 680.052 ± 0.2 | 675.736 ± 0.2 | 671.39 ± 0.2 | 667.016 ± 0.21
x1 = 0.2017 | 701.458 ± 0.21 | 697.235 ± 0.21 | 692.989 ± 0.21 | 688.722 ± 0.21 | 684.431 ± 0.21 | 680.114 ± 0.22 | 675.766 ± 0.22 | 671.395 ± 0.22
x1 = 0.3011 | 708.825 ± 0.24 | 704.586 ± 0.24 | 700.331 ± 0.24 | 696.055 ± 0.24 | 691.758 ± 0.24 | 687.436 ± 0.24 | 683.088 ± 0.24 | 678.716 ± 0.24
x1 = 0.4001 | 716.491 ± 0.27 | 712.241 ± 0.27 | 707.974 ± 0.27 | 703.691 ± 0.27 | 699.388 ± 0.27 | 695.063 ± 0.27 | 690.714 ± 0.27 | 686.344 ± 0.27
x1 = 0.5105 | 725.411 ± 0.31 | 721.153 ± 0.31 | 716.879 ± 0.31 | 712.593 ± 0.31 | 708.285 ± 0.31 | 703.959 ± 0.3 | 699.61 ± 0.3 | 695.241 ± 0.3
x1 = 0.5996 | 732.829 ± 0.35 | 728.568 ± 0.34 | 724.292 ± 0.34 | 720.004 ± 0.34 | 715.698 ± 0.34 | 711.371 ± 0.34 | 707.026 ± 0.34 | 702.664 ± 0.34
x1 = 0.6802 | 739.756 ± 0.39 | 735.495 ± 0.39 | 731.219 ± 0.38 | 726.929 ± 0.38 | 722.623 ± 0.38 | 718.301 ± 0.38 | 713.958 ± 0.38 | 709.598 ± 0.38
x1 = 0.7495 | 745.832 ± 0.42 | 741.569 ± 0.42 | 737.294 ± 0.42 | 733.009 ± 0.42 | 728.705 ± 0.42 | 724.386 ± 0.42 | 720.046 ± 0.41 | 715.689 ± 0.41
x1 = 0.7984 | 750.175 ± 0.45 | 745.914 ± 0.45 | 741.641 ± 0.45 | 737.357 ± 0.45 | 733.056 ± 0.45 | 728.74 ± 0.45 | 724.406 ± 0.44 | 720.058 ± 0.44
x1 = 0.8484 | 754.693 ± 0.49 | 750.434 ± 0.48 | 746.164 ± 0.48 | 741.883 ± 0.48 | 737.584 ± 0.48 | 733.272 ± 0.47 | 728.943 ± 0.47 | 724.594 ± 0.47
x1 = 0.8999 | 759.4 ± 0.52 | 755.143 ± 0.52 | 750.877 ± 0.52 | 746.597 ± 0.51 | 742.304 ± 0.51 | 737.996 ± 0.51 | 733.672 ± 0.51 | 729.332 ± 0.5
x1 = 0.9467 | 763.694 ± 0.56 | 759.441 ± 0.55 | 755.177 ± 0.55 | 750.901 ± 0.55 | 746.613 ± 0.54 | 742.31 ± 0.54 | 737.99 ± 0.54 | 733.656 ± 0.54
x1 = 1 | 768.637 ± 0.6 | 764.385 ± 0.59 | 760.128 ± 0.59 | 755.856 ± 0.59 | 751.573 ± 0.58 | 747.276 ± 0.58 | 742.962 ± 0.58 | 738.636 ± 0.57
